# Several values for one entry are separate records, joined by “and”; a condition that tells them apart may be missing. Equal entries are not always repeated.
# Legend:
# [1] = system: DU-145 prostate cancer cells; experiment: Viability of AR-negative cells (WST-1); type: cell-based, human; conditions: increasing concentrations, 4 days
# subcutaneous VCaP tumors = experiment: Castration-resistant VCaP xenograft, tumor volume; type: in vivo, castrated nude mice; conditions: 37 days
# serum testosterone = experiment: Serum testosterone in intact nude mice bearing orthotopic VCaP tumors; type: in vivo; conditions: 50 mg/kg bid oral, 3 weeks
# Experimental: (§1) One million VCaP cells in 20 μL of RPMI-1640 medium were orthotopically injected into the dorsal prostate lobes of athymic nude male mice (7 weeks old from Harlan Winkelman, France). Tumor growth was followed by measuring serum PSA (ProStatus™ PSA EQM Kits, Wallac, Finland). […] At autopsy, blood samples were collected by heart puncture, clotted overnight at +4 °C, and centrifuged. For serum testosterone determination, 25-μL aliquots were extracted twice with 2 mL of diethyl ether and evaporated under nitrogen to dryness. The residues were reconstituted in PBS and measured using a standard radioimmunoassay as described previously.
# orthotopic VCaP tumors = experiment: Orthotopic VCaP xenograft, tumor growth; type: in vivo, nude mice; conditions: 50 mg/kg bid oral, 3 weeks, vs control group
# Experimental: as §1
# [2] = Quantitative whole-body autoradiography (QWBA); type: in vivo; conditions: rat, compound and its metabolites, data not shown
# [3] = Body weight of mice bearing subcutaneous VCaP xenograft tumors; type: in vivo, castrated nude mice; conditions: for Change in body weight (%) d 3 / Change in body weight (%) d 9 / Change in body weight (%) d 16 / Change in body weight (%) d 23 / Change in body weight (%) d 30 / Change in body weight (%) d 37: individual animals, vs BW before treatment, 50 mg/kg
# Experimental: BALB/c nude male mice (7 weeks old from Charles River, Germany) were subcutaneously injected with 2 million VCaP cells in 100 μL of RPMI-1640 medium and Matrigel (BD) (1:1). Tumor growth was monitored twice weekly by caliper measurements. The volume of the tumor was calculated according to the formula W^2 × L/2 (mm^3), where W is the shorter and L the longer diameter of the tumor. When the average tumor volume reached ~200 mm^3, mice were castrated or SHAM-operated under Avertin anesthesia. […] For all in vivo studies, Macrocol® (Merck) + propylene glycol +5% glucose (50:30:20, v/v/v) was used as a vehicle.
# AR(W741L) = target: T1, AR(W741L) (Homo sapiens, UniProt P10275, W742L)
# T1 sequence (P10275 1-920 W742L): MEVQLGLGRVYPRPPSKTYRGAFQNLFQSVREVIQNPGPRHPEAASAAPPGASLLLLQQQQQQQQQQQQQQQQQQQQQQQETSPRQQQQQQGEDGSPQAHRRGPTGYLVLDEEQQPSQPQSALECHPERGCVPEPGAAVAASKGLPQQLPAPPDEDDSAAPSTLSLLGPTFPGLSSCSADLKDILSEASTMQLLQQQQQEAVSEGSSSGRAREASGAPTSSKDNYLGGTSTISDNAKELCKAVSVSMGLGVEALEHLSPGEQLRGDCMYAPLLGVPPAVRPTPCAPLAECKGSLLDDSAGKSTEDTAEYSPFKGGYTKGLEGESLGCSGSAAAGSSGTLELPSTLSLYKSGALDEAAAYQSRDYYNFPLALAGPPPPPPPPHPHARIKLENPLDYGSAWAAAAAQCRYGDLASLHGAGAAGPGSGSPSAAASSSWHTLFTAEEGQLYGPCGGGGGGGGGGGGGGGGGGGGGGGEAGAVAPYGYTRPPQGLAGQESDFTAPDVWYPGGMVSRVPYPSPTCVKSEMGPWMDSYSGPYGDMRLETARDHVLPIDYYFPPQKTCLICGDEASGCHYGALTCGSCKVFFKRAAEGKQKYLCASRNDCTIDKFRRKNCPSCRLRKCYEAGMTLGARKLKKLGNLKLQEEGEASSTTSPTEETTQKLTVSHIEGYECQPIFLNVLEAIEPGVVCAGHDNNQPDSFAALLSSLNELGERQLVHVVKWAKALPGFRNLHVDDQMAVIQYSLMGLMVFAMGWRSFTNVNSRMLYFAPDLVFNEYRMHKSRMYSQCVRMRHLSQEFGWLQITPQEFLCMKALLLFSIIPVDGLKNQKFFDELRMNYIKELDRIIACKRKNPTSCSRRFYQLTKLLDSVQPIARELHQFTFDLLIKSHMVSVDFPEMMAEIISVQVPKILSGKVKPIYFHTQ
# Experimental: For one well in a 96-well plate, 190 ng of reporter construct DNA and 10 ng of receptor construct DNA were diluted in Opti-MEM® (Gibco). […] Luciferase activity was measured as described above.
# PSA = conditions: chemotherapy-naïve CRPC patients, 700 mg twice daily, ARADES study ref 28; cited from earlier work
# testosterone = conditions: ODM-201-treated patients ref 28; cited from earlier work
smiles,measurement,setting,value
CC(O)c1cc(C(=O)N[C@@H](C)Cn2ccc(-c3ccc(C#N)c(Cl)c3)n2)[nH]n1 (stereo partly shown) [ODM-201],effect on viability of DU-145 cells,[1],no effect
same,antitumor activity (tumor volume),"subcutaneous VCaP tumors; 50 mg/kg oral once daily, vs castrated untreated mice",significant antitumor activity
same,antitumor activity (tumor volume),"subcutaneous VCaP tumors; 50 mg/kg oral twice daily, p < 0.001 vs castrated untreated mice, p = 0.0245 vs enzalutamide",significant antitumor activity
same,effect on serum testosterone levels,serum testosterone,did not affect
same,orthotopic VCaP tumor growth,orthotopic VCaP tumors,inhibited tumor growth significantly
same,access into the brain (QWBA),[2],very low access
same,body weights during the treatment,"[3]; 50 mg/kg twice daily oral, 37 days",did not decrease significantly
same,Change in body weight (%) d 3,[3]; ODM-201 50 mg/kg bid oral,-0.4% and 0.0% and -2.8% and -1.9% and -1.3% and -4.9% and -2.9%
same,Change in body weight (%) d 9,[3]; ODM-201 50 mg/kg bid oral,-2.1% and -2.5% and -9.8% and -0.9% and -0.5% and -4.5% and -6.9% and -1.9%
same,Change in body weight (%) d 16,[3]; ODM-201 50 mg/kg bid oral,1.7% and -4.9% and 5.6% and 3.3% and 0.4% and -4.5% and -1.0%
same,Change in body weight (%) d 23,[3]; ODM-201 50 mg/kg bid oral,-1.7% and -6.5% and -2.8% and 0.5% and -5.4% and -11.4% and -7.2%
same,Change in body weight (%) d 30,[3]; ODM-201 50 mg/kg bid oral,-1.3% and 0.8% and -6.1% and -3.8% and 3.8% and -3.6% and -1.6% and -3.4%
same,Change in body weight (%) d 37,[3]; ODM-201 50 mg/kg bid oral,0.4% and -6.1% and -0.5% and -6.7% and -1.2% and -6.3%
same,Change in body weight (%) d 3,[3]; ODM-201 50 mg/kg qd oral,-2.5% (2×) and -1.3% and -2.0% and -2.9% and -0.5% and -2.3% and -3.8% and -4.7% and 9.0%
same,Change in body weight (%) d 9,[3]; ODM-201 50 mg/kg qd oral,2.2% and -1.7% and 3.5% and 6.9% and -4.9% and 3.9% and 1.8% and -0.8% and -7.7% and 7.5%
same,Change in body weight (%) d 16,[3]; ODM-201 50 mg/kg qd oral,-1.3% and 3.0% and 14.7% and 2.5% and -5.7% and 6.9% and 0.5% and 3.8% and 1.3% and 9.5%
same,Change in body weight (%) d 23,[3]; ODM-201 50 mg/kg qd oral,6.0% and -8.2% and 4.4% and -4.9% and -1.3% and -0.5% and 0.9% and -0.4%
same,Change in body weight (%) d 30,[3]; ODM-201 50 mg/kg qd oral,1.5% and -3.9% and 2.5% and 8.3% and -4.1% and 2.0% and 1.8% and 0.0% and -0.4%
same,Change in body weight (%) d 37,[3]; ODM-201 50 mg/kg qd oral,5.0% and -6.5% and 1.5% and 6.9% and -7.8% and 2.5% and 1.8% and -0.8% and -4.6%
same,functional activity (agonist/antagonist) on AR(W741L),AR(W741L),full antagonists
same,"PSA response (50% or greater decrease), share of patients",PSA,86%
same,serum testosterone levels in treated patients,testosterone,maintained at castrate levels
